The values below come from ChEMBL document CHEMBL5725801, “Fused heterocyclic compounds as CaM kinase inhibitors” (2018).

Experiment [1] can be described thus: CaMKII Cell-Based Activity: CaMKII activity in neonatal rat ventricular myocytes (NRVM) was measured by monitoring the phosphorylation level of phospholamban using high-content imaging. NRVMs were plated in a clear bottom 384-well plate in medium supplemented with 10% fetal bovine serum (FBS) and incubated at 37° C., 5% CO2 overnight. The medium was changed to a serum-free medium and compounds were dosed to the cells. The cells were incubated at 37° C., 5% CO2 for 4 hours and were then treated with 100 nM ATX-II (Alomone Labs) to activate CaMKII. 10 minutes after the addition of ATX-II, the cells were fixed with 4% formaldehyde followed by permeabilization with 0.1% triton X100. The fixed cells were stained with an anti-phospho-phospholamban primary antibody (Santa Cruz Biotechnology) and an Alexa488-labeled anti-rabbit IgG secondary antibody (Life Technologies Corporation) as well as Hoechst 33342 (Life Technologies Corporation). The cells were imaged using an ArrayScan VTI (Cellomics) and analyzed for cells containing a positive fluorescent signal at 485 nm, reported as % responder. The % responders were plotted against the compound concentration to determine the compounds EC50.

The nature of experiment [2]: CaMKII delta Biochemical Assay: The biochemical activity of recombinant CaMKIIδ was measured by monitoring the phosphorylation of a target peptide using Homogenous Time Resolved Fluorescence (HTRF) technology from CisBio Bioassays. 10 pM […] (Life Technologie Corporation) was incubated for 1 hour with 110 nM calmodulin (EMD Millipore), 1 μM Biotin-STK1 (target peptide, CisBio Bioassays) and 12 μM ATP (Sigma-Aldrich) in a buffer containing 20 mM Hepes pH7.2, 10 mM MgCl2 and 1 mM CaCl2 as well as the compound to be tested or DMSO at a final concentration of 0.6%. The reaction was stopped with the addition of the detection buffer (containing EDTA) with Eu-cryptate labeled anti-phospho-STK1 antibody (CisBio Bioassays) and 125 nM XL665 labeled streptavidin (CisBio Bioassays). (TR-FRET usually uses a lanthanide donor and a delayed reading to cut background.)

For `CCN1C[C@@H](F)C[C@H]1CNC(=O)c1ccnc(-c2cnn3ccc(-c4cccs4)nc23)c1`, it took 53.4 nM to reach a half-maximal effect in experiment [1] (EC50). In addition, the half-maximal inhibitory concentration (IC50) in experiment [2] came out at 7.07 nM.

Regarding `CCN(CC)[C@@H](C)CNC(=O)c1cccc(-c2cnn3ccc(-c4cccs4)nc23)n1`, the EC50 in experiment [1] was 103 nM.

The compound `CCN(CC)[C@@H](C)CNC(=O)c1cc(-c2cnn3ccc(-c4ccc(F)s4)nc23)nc(N2CC[C@H]2C(=O)NC)c1` returned an EC50 in experiment [1] of 10 nM. As for `CCN(CC)[C@@H](C)CNC(=O)c1cncc(-c2cnn3ccc(-c4cccs4)nc23)c1`, in experiment [1], the concentration for a half-maximal effect (EC50) came to 22 nM. Compared with the last compound, the EC50 is about 2.2-fold higher. Same read-out and setting: next, `CC[C@@H](CNC(=O)c1cc(-c2cnn3ccc(-c4cccs4)nc23)nc(N2CC[C@H]2C(=O)NC)c1)N(CC)CC` (single isomer, unassigned): 37.8 nM. For `CC[C@H](CNC(=O)c1cc(-c2cnn3ccc(-c4cccs4)nc23)nc(N2CC[C@H]2C(=O)NC)c1)N(CC)CC` (single isomer, unassigned), a half-maximal response in experiment [1] (EC50) required 34.3 nM.

The term EC50 denotes the concentration needed to bring the measured effect to its halfway point. In general, IC50 refers to the concentration that gives 50% inhibition.
